Test results from BindingDB's records for doi:10.1021/acs.jmedchem.7b00076 (University of Chinese Academy of Sciences, 2017).

Assays:
[1] = Inhibition of TEL-fused KDR (unknown origin) expressed in mouse Ba/F3 cells assessed as inhibition of cell proliferation after 72 hrs by cell counting kit-8 assay
[2] = Inhibition of FGFR1 in human NCI-H1581 cells assessed as inhibition of cell proliferation after 72 hrs by cell counting kit-8 assay
[3] = Inhibition of CCDC6-fused RET (unknown origin) expressed in mouse Ba/F3 cells assessed as inhibition of cell proliferation after 72 hrs by cell counting kit-8 assay
[4] = Inhibition of FGFR1OP2 fused FGFR1 in human KG1 cells assessed as inhibition of cell proliferation after 72 hrs by cell counting kit-8 assay

- IC50 [1]: 9.8 nM
- IC50 [2]: 391 nM
- IC50 [3]: 316 nM
- IC50 [4]: 15 nM
Structure (SMILES): Cc1n[nH]c2ccc(-c3cc(N[C@@H](CO)c4ccccc4)cnc3-c3cc(F)ccc3O)cc12
